From US9303026B2, “Antiviral agents” (Biota Scientific Management Pty Ltd, priority 2000, dated 2016)

Assay: Cytotoxicity in uninfected treated cultures (CC50)
Type: cell-based
Conditions: human, uninfected MRC-5 human embryo lung cells; Table 7; concentration yielding 50% cytotoxicity, uninfected MRC-5 cells

CSc1nc2ccc(OCCC3CCN(c4ccc(C)nn4)CC3)cc2o1 [Compound 4, 6-{2-[1-(6-Methyl-3-pyridazinyl)-4-piperidinyl]ethoxy}-2-methylthiobenzoxazole]
CC50: > 1 µg/mL
